According to patent US10178875B2, “Methods of modifying or imparting taste using organic compounds” (Givaudan, S.A., priority 2013, dated 2019):

How the values were obtained:
Format in all cases: in vivo
panel of trained tasters = experiment: Taste evaluation in water
Protocol: A one percent cut of each compound of Examples 1-13 was prepared first. The hydrochloride salts were cut directly into water, while the free base examples were cut into ethanol. Next, 100 ml of a 1 ppm, 10 ppm and 20 ppm solution were prepared. The 1 ppm standards were prepared by addition of 0.0126 ml (cut in ethanol) or 0.01 ml (cut in water) to an amber bottle followed by dilution to 100 g total sample weight using water. The 10 and 20 ppm solutions were prepared similarly, but using 0.126 ml ethanol/0.1 ml water or 0.252 ml ethanol/0.2 ml water of the 1% cuts respectively. Next, the samples were evaluated by a panel of trained tasters.

bench-top tasting panel [1] = experiment: Umami evaluation in retorted chicken broth (Example 20); settings: Example 3 4 ppm, Example 13 3 ppm, Example 10 4 ppm, Example 9 3 ppm; for umami strength ranking: MSG 0.20%, 9 panelists
Protocol: (§1) Umami evaluations were done in dry noodle seasoning, chicken broth, retorted chicken broth, cheese sauce and salted potato chip applications. Each application was prepared using MSG, the experimental umami tastant and a blank which contained neither MSG nor the experimental umami tastant. Next, using a bench-top tasting panel (consisting of 7 to 14 panelists), panelists were asked to record the sensory attribute differences between the control (blank), the MSG application and the application containing the experimental umami tastant. These sensory attributes include umami, saltiness, bitterness, off-notes, mouth feel attribute, lingering attribute and flavor profile differences.
The procedure for the preparation of the retorted chicken broth is the same as in example 16. Compounds from Examples 3, 9, 10 and 13 were spiked individually into the chicken broth generating six samples, as described below.

bench-top tasting panel [2] = experiment: Bain marie (hot water bath) test with chicken broth; settings: hot water bath 150° F. for 4 hours, Example 3 3 ppm, Example 13 2 ppm (table), Example 10 3 ppm, Example 9 2 ppm; for umami strength ranking: MSG 0.20%, 7 panelists
Protocol: as §1
Chicken broth was prepared as previously described in example 15. Compounds from Examples 3, 9, 10 and 13 were added to the chicken broth in the concentrations described below and placed in a hot water bath (150° F.) for 4 hours prior to taste evaluation.

bench-top tasting panel [3] = experiment: Umami evaluation on salted potato chips (Example 22); settings: 1% salted potato chips, Example 3 10 ppm, Example 13 10 ppm, Example 10 6 ppm, Example 9 10 ppm; for umami strength ranking: MSG 0.2%, 9 panelists
Protocol: as §1
The potato chips were prepared as previously described in example 19 and spiked with compounds from Examples 3, 9, 10 and 13 as described below.

Oc1ccc(SCCc2ccccn2)cc1 [Example 6, 4-((2-(PYRIDIN-2-YL)ETHYL)THIO)PHENOL] was tested, and the aroma (panel of trained tasters; 1 ppm in water) was “green”, the taste (panel of trained tasters; 1 ppm in water) was “very weak: umami, astringent” and the aroma (panel of trained tasters; 10 ppm in water) was “Green, fruity”. The taste (panel of trained tasters; 10 ppm in water) was “weak: umami, bitter, astringent, very weak”, the aroma (panel of trained tasters; 20 ppm in water) was “Green, fruity” and the taste (panel of trained tasters; 20 ppm in water) was “weak: umami, bitter, astringent, very weak”.
In the case of COC(=O)c1ccccc1SCCc1ccccn1.Cl [Example 9, METHYL 2-((2-(PYRIDIN-2-YL)ETHYL)THIO)BENZOATE HYDROCHLORIDE], the taste (panel of trained tasters; 1 ppm in water) is reported as “weak: umami, astringent, very weak: salty,”, the taste (panel of trained tasters; 10 ppm in water) is reported as “moderate umami,, weak: salty, astringent, very” and the taste (panel of trained tasters; 20 ppm in water) is reported as “moderate umami, weak: salty, astringent,”. The “flavor profile described by panelists” value (bench-top tasting panel [1]) was “a sweet, full umami profile”, the umami strength ranking (bench-top tasting panel [1]) was “MSG>3 ppm example 9>3 ppm Example 13>4 ppm Example 3>Blank retorted chicken broth>4 ppm Example 10” and the “flavor profile described by panelists” value (bench-top tasting panel [2]) was “a boost in saltiness along with a strong, full umami taste profile”. The umami strength ranking (bench-top tasting panel [2]) was “MSG>2 ppm example 9>3 ppm Example 10=4 ppm Example 13>Blank chicken broth>3 ppm Example 3”, the “flavor profile described by panelists” value (bench-top tasting panel [3]) was “better mouthfeel, slight to moderate umami with an overall clean profile” and the umami strength ranking (bench-top tasting panel [3]) was 10 ppm Example 3>10 ppm Example 9>MSG>10 ppm Example 13>blank>6 ppm Example 10.
For Cc1ccccc1SCCc1ccccn1.Cl [Example 5, 2-(2-(O-TOLYLTHIO)ETHYL)PYRIDINE HYDROCHLORIDE], the aroma (panel of trained tasters; 1 ppm in water) was “green pepper”, the taste (panel of trained tasters; 1 ppm in water) was “weak bitter, astringent, very weak metallic” and the aroma (panel of trained tasters; 10 ppm in water) was “green pepper”. The taste (panel of trained tasters; 10 ppm in water) was “weak umami, very weak bitter”, the aroma (panel of trained tasters; 20 ppm in water) was “green pepper” and the taste (panel of trained tasters; 20 ppm in water) was “weak umami, very weak: bitter, astringent”.
In the case of Cl.c1ccc(SCCc2ccccn2)cc1 [Example 2, 2-(2-(PHENYLTHIO)ETHYL)PYRIDINE HYDROCHLORIDE], the aroma (panel of trained tasters; 1 ppm in water) is reported as “green”, the taste (panel of trained tasters; 1 ppm in water) is reported as “weak umami, very weak astringent” and the aroma (panel of trained tasters; 10 ppm in water) is reported as “green”. The taste (panel of trained tasters; 10 ppm in water) was “moderate umami, very weak: salty, bitter,”, the aroma (panel of trained tasters; 20 ppm in water) was “green” and the taste (panel of trained tasters; 20 ppm in water) was “moderate umami, weak: salty, bitter, astringent”.
With Oc1ccccc1SCCc1ccccn1 [Example 7, 2-((2-(PYRIDIN-2-YL)ETHYL)THIO)PHENOL] the aroma (panel of trained tasters; 1 ppm in water) was “Green pepper”, the taste (panel of trained tasters; 1 ppm in water) was “very weak: umami, salty, weak bitter” and the aroma (panel of trained tasters; 10 ppm in water) was “Green pepper”. The taste (panel of trained tasters; 10 ppm in water) was “weak to moderate umami, weak: bitter, metallic,”, the aroma (panel of trained tasters; 20 ppm in water) was “Green pepper” and the taste (panel of trained tasters; 20 ppm in water) was “Weak to moderate umami, weak bitter, very”.
With COC(=O)c1ccc(SCCc2ccccn2)cc1.Cl [Example 3, METHYL 4-((2-(PYRIDIN-2-YL)ETHYL)THIO)BENZOATE HYDROCHLORIDE] the taste (panel of trained tasters; 1 ppm in water) was “weak to moderate umami, very weak: bitter,”, the aroma (panel of trained tasters; 10 ppm in water) was “bloody metallic” and the taste (panel of trained tasters; 10 ppm in water) was “moderate umami, weak: bitter, metallic,”. The aroma (panel of trained tasters; 20 ppm in water) was “bloody metallic”, the taste (panel of trained tasters; 20 ppm in water) was “moderate to strong umami, weak: bitter,” and the “flavor profile described by panelists” value (bench-top tasting panel [1]) was “a sweeter flavor profile with a build up of umami character”. For the same compound, the umami strength ranking (bench-top tasting panel [1]) was “MSG>3 ppm example 9>3 ppm Example 13>4 ppm Example 3>Blank retorted chicken broth>4 ppm Example 10”, the “flavor profile described by panelists” value (bench-top tasting panel [2]) was “a bitter, limited umami flavor profile” and the umami strength ranking (bench-top tasting panel [2]) was “MSG>2 ppm example 9>3 ppm Example 10=4 ppm Example 13>Blank chicken broth>3 ppm Example 3”. For the same compound, the “flavor profile described by panelists” value (bench-top tasting panel [3]) was “a slight to moderate level of umami along with strong salty profile” and the umami strength ranking (bench-top tasting panel [3]) was 10 ppm Example 3>10 ppm Example 9>MSG>10 ppm Example 13>blank>6 ppm Example 10.
With Cc1ccc(SCCc2ccccn2)cc1.Cl [Example 4, 2-(2-(P-TOLYLTHIO)ETHYL)PYRIDINE HYDROCHLORIDE] the taste (panel of trained tasters; 1 ppm in water) was “very weak: umami, bitter, astringent”, the aroma (panel of trained tasters; 10 ppm in water) was “green” and the taste (panel of trained tasters; 10 ppm in water) was “weak: umami, bitter, astringent, very weak”. The aroma (panel of trained tasters; 20 ppm in water) was “green” and the taste (panel of trained tasters; 20 ppm in water) was “Weak: umami, bitter, metallic, sour, astringent”.
In the case of Cc1cccc(SCCc2ccccn2)c1.Cl [Example 12, 2-(2-(M-TOLYLTHIO)ETHYL)PYRIDINE HYDROCHLORIDE], the taste (panel of trained tasters; 1 ppm in water) is reported as “weak: umami, astringent, very weak salty”, the taste (panel of trained tasters; 10 ppm in water) is reported as “moderate umami, weak: salty, astringent” and the taste (panel of trained tasters; 20 ppm in water) is reported as “moderate to strong umami, weak: salty,”.
For COc1ccc(SCCc2ccccn2)cc1.Cl [Example 13, 2-(2-((4-METHOXYPHENYL)THIO)ETHYL)PYRIDINE HYDROCHLORIDE], the taste (panel of trained tasters; 1 ppm in water) was “Weak umami, very weak bitter, astringent”, the taste (panel of trained tasters; 10 ppm in water) was “Moderate to strong umami, very weak: bitter,” and the aroma (panel of trained tasters; 20 ppm in water) was “pyrazine”. The taste (panel of trained tasters; 20 ppm in water) was “Strong umami, very weak bitter”, the “flavor profile described by panelists” value (bench-top tasting panel [1]) was “a slightly sweet/slightly bitter profile” and the umami strength ranking (bench-top tasting panel [1]) was “MSG>3 ppm example 9>3 ppm Example 13>4 ppm Example 3>Blank retorted chicken broth>4 ppm Example 10”. For the same compound, the “flavor profile described by panelists” value (bench-top tasting panel [2]) was “mid/late umami with some late onset bitterness”, the umami strength ranking (bench-top tasting panel [2]) was “MSG>2 ppm example 9>3 ppm Example 10=4 ppm Example 13>Blank chicken broth>3 ppm Example 3” and the “flavor profile described by panelists” value (bench-top tasting panel [3]) was “A good, salty, umami profile”. For the same compound, the umami strength ranking (bench-top tasting panel [3]) was 10 ppm Example 3>10 ppm Example 9>MSG>10 ppm Example 13>blank>6 ppm Example 10.
In the case of c1ccc(CSCCc2ccccn2)cc1 [Example 11, 2-(2-(BENZYLTHIO)ETHYL)PYRIDINE], the aroma (panel of trained tasters; 1 ppm in water) is reported as “phenolic”, the taste (panel of trained tasters; 1 ppm in water) is reported as “weak umami, very weak astringent” and the aroma (panel of trained tasters; 10 ppm in water) is reported as “Phenolic, spicy”. The taste (panel of trained tasters; 10 ppm in water) was “weak umami, very weak astringent”, the aroma (panel of trained tasters; 20 ppm in water) was “Phenolic, spicy” and the taste (panel of trained tasters; 20 ppm in water) was “moderate to strong umami, very weak bitter,”.
COc1cccc(SCCc2ccccn2)c1 [Example 8, 2-(2-((3-METHOXYPHENYL)THIO)ETHYL)PYRIDINE] was tested, and the aroma (panel of trained tasters; 1 ppm in water) was “Green pepper, beany”, the taste (panel of trained tasters; 1 ppm in water) was “very weak metallic, weak astringent” and the aroma (panel of trained tasters; 10 ppm in water) was “Green pepper”. For the same compound, the taste (panel of trained tasters; 10 ppm in water) was “weak: umami, astringent, very weak: bitter,”, the aroma (panel of trained tasters; 20 ppm in water) was “Green pepper” and the taste (panel of trained tasters; 20 ppm in water) was “weak: umami, very weak: bitter, metallic”.
In the case of Oc1cccc(SCCc2ccccn2)c1 [Example 10, 3-((2-(PYRIDIN-2-YL)ETHYL)THIO)PHENOL], the aroma (panel of trained tasters; 1 ppm in water) is reported as “green”, the taste (panel of trained tasters; 1 ppm in water) is reported as “very weak bitter” and the taste (panel of trained tasters; 10 ppm in water) is reported as “weak: umami, metallic, very weak: bitter,”. For the same compound, the aroma (panel of trained tasters; 20 ppm in water) was “vegetable”, the “flavor profile described by panelists” value (bench-top tasting panel [1]) was “a green pepper aroma and was slightly bitter” and the umami strength ranking (bench-top tasting panel [1]) was “MSG>3 ppm example 9>3 ppm Example 13>4 ppm Example 3>Blank retorted chicken broth>4 ppm Example 10”. The “flavor profile described by panelists” value (bench-top tasting panel [2]) was “mid/late umami along with a slight bitterness and off notes”, the umami strength ranking (bench-top tasting panel [2]) was “MSG>2 ppm example 9>3 ppm Example 10=4 ppm Example 13>Blank chicken broth>3 ppm Example 3” and the “flavor profile described by panelists” value (bench-top tasting panel [3]) was “a nice salty, slight umami profile along with a slight offnote”. The umami strength ranking (bench-top tasting panel [3]) was 10 ppm Example 3>10 ppm Example 9>MSG>10 ppm Example 13>blank>6 ppm Example 10.
